Laboratory results taken from patent publication US10408843B2, “Compositions and methods for detecting S-nitrosylation and S-sulfinylation” (The Regents of the University of Michigan, priority 2013, dated 2019).

Assays:
[1] = tested on: sulfenic acids in 293T cell lysates; experiment: Dimedone-alkyne detection of sulfenic acids in lysates; assay type: biochemical, human
Procedure: FIG. 12. Sulfenic acids are eliminated by ascorbate reduction or denaturing buffers. Lysates were labeled for 1 hour with 1 mM dimedone-alkyne, and precipitated with chloroform:methanol. The protein fraction was sonicated in PBS and diluted to 1 mg/mL, and incubated with 20 μM TAMRA-azide, 1 mM CuSO4, and 100 μM Tris[(1-benzyl-1H-1,2,3-triazol-4-yl)methyl]amine (TBTA) for 1 hour, boiled in reducing loading buffer, and separated by SDS-PAGE. After transfer and Cy5-streptavidin binding, the gel was visualized using a GE Typhoon fluorescence scanner. […] Pre-treatment with sodium ascorbate (20 mM) for 30 minutes efficiently reduces sulfenic acids. […] Furthermore, ascorbate reduces sulfenic acids, and confirms non-selective enrichment of an additional cysteine oxidative modification by the biotin-switch method.

[2] = Rate constant determination: loss of GSNO absorbance after phenylsulfinic acid addition; assay type: physicochemical
Procedure: FIG. 6A-B. GSNO is consumed by increasing concentrations of sodium phenylsulfinate. (a) A 2 mM solution of S-nitrosoglutathione (GSNO, Cayman) was treated with increasing concentrations of phenylsulfinic acid, and the absorbance of GSNO was monitored over a period of 90 minutes at 340 nm using a plate reader in varying pH buffers. (b) Calculation of rate constants at differing pH values. At pH 7, the rate becomes more hyperpbolic.
Thiosulfonate formation was further characterized by measuring the loss of S-nitroso-glutathione (GSNO) absorbance after phenylsulfinic acid addition (FIG. 6). At pH 1 and 4, the reaction rate is first order and proceeds at 3×10^−5 M·sec^−1. […]
S-nitrosoglutathione (GSNO, Cayman) and sodium phenylsulfinate (Sigma-Aldrich) were used for rate-determination studies at four pH values: pH 1.0 (0.2 N HCl/KCl buffer), pH 4.0 (0.1 M Sodium acetate/Acetic Acid buffer), pH 7.0 (0.1 M potassium phosphate buffer) and pH 10.0 (0.1 M Sodium bicarbonate/Sodium hydroxide buffer). The purity of S-nitrosoglutathione was calculated as 94±1.3% by absorbance at 334 nm using the molar extinction coefficient of 900 M^−1 cm^−1. Assays were performed using a plate reader (Tecan Infinite F500) monitoring absorbance of 2 mM GSNO at 340 nm over a course of 90 minutes in the presence of varying concentrations of sodium phenylsulfinate. […]

[3] = HPLC cross-reactivity assay of phenylsulfinic acid; assay type: physicochemical
Procedure: FIG. 3. […] A 10 mM solution of phenylsulfinic acid was allowed to react with a 20 mM solution of iodoacetamide in potassium phosphate buffer pH 7.4 for 5 hours. After 5 hours, the reaction mixture was injected on an HPLC and separated using gradient elution (5% ACN to 95% ACN over 15 minutes). Absence of additional peaks (over 202-798 nm, monitored on a PDA detector) was interpreted as no reaction between the sulfinic acid and iodoacetamide.
A 2 mM solution of phenylsulfinic acid was allowed to stand with 20 mM solutions of N-acetyl-cysteine-methyl ester, benzaldehyde, cystine dimethyl ester, and 5,5′-dithiobis-(2-nitrobenzoic acid) in phosphate buffer pH 7.4 for 5 hours. The reaction mixtures were injected on an HPLC and analyzed using gradient elution (5% ACN to 95% ACN over 15 minutes). Peaks beyond minute 8.6 in (a) are contaminants present in the commercial cysteine sample (Sigma-Aldrich).
Cross-reactivity was determined by allowing components to react for 4 hours. HPLC analysis (every 30 minutes) was used to monitor reactions. Reduction in peak intensity of initial components and the appearance of new peak was termed as a positive reaction. Partial reaction indicates incomplete reaction.

[4] = tested on: S-nitrosylated proteins in mammalian cell lysates; experiment: Gel-based labeling of endogenous S-nitrosylated proteins in cell lysates; assay type: biochemical, human; details: lysates denatured, alkylated with iodoacetamide; streptavidin detection
Procedure: FIG. 8. Dose-dependent labeling of S-nitrosylated proteins by biotin-SO2H. 293T and PANC1 cells were lysed in 6 M urea/PBS and alkylated with 50 mM iodoacetamide for 30 minutes, followed by incubation with increasing concentrations of biotin-SO2H for 45 minutes.
Next, the reactivity of sulfinic acids with native S-nitrosylated proteins was examined. Biotin and fluorescein N-hydroxysuccinimide (NHS) esters were directly coupled to the biological sulfinic acid metabolite hypotaurine (biotin-SO2H) or the sulfonic acid metabolite taurine (biotin-SO3H). Each probe was incubated with mammalian cell lysates pre-alkylated with excess iodoacetamide (FIG. 1b) in 6 M urea/phosphate buffered saline (PBS), and separated by non-reducing SDS-PAGE for transfer to nitrocellulose and streptavidin detection. […]
Cells and lysates were protected from light and kept on ice throughout the labeling protocol, except when noted. […] Lysate protein concentrations were quantified using the Bio-Rad DC assay, and diluted 3 mg/mL in 6 M urea/PBS. […] For in-gel fluorescence analysis, samples were loaded without boiling using non-reducing SDS-PAGE loading buffer for SDS-PAGE separation. […] In-gel fluorescence and streptavidin blots were analyzed using a GE typhoon scanner at appropriate wavelengths (488/526 for fluorescein and 633/670 for Cy5-Streptavidin).

[5] = target: T1, Recombinant human GAPDH (Homo sapiens, UniProt P04406); experiment: Labeling of recombinant GAPDH (in-gel fluorescence, LC-MS); assay type: biochemical
T1 construct: 6His; made in house; host or cells: E. coli BL21
Procedure: FIG. 14. Profiling fluorescein-SO2H reactivity and selectivity on S-nitrosylated GAPDH. Recombinant human GAPDH was resuspended in 6 M urea/PBS, treated with 50 mM iodoacetamide for 30 minutes, and mixed with dimedone, ascorbate, peroxide or NO donor (5 minutes). Fluorescein-SO2H (500 μM) was then added to the GAPDH sample for 45 minutes. S-nitrosylated human GAPDH labeling increases upon incubation with the NO donor MAHMA-NONOate, and decreases following treatment with ascorbate. […] Fluorescein-SO2H labeling is unaffected by pre-incubation with peroxide or dimedone.
FIG. 15. Biotin-SO2H reacts with human GAPDH and forms a thiosulfonate. Recombinant human GADPH was labeled with biotin-SO2H for site-specific analysis of S-nitrosylation by high-resolution mass spectrometry.
Given the efficient and selective conjugation of sulfinic acids and nitrosothiols, recombinant human GAPDH were next purified for targeted analysis of S-sulfinylation with biotin-SO2H. […] Biotin-SO2H-labeled GAPDH protein was digested with trypsin and analyzed by high-resolution mass spectrometry, identifying a biotin-thiosulfonate modified peptide encompassing the GAPDH catalytic cysteine (FIG. 15). […] These studies confirm direct detection of native of S-sulfinylation by sulfinic acid probes for mass spectrometry analysis.
Purified human GAPDH was diluted to 0.2 mg/mL in phosphate buffered saline (pH 7.3), and treated with 20 mM iodoacetamide for 30 minutes. Next, the sample was treated with 100 μM biotin-SO2H. Purified human DJ-1 was diluted to 0.2 mg/mL in PBS, and incubated with 20 mM iodoacetamide to alkylated free thiols. Next, the sample was treated with 2 mM hydrogen peroxide for 20 minutes to promote Cys106 sulfinic acid formation. […] Eluted peptides were analyzed using a Waters Synapt G2-S HDMS time-of-flight mass spectrometer in positive mode. […] MS data was searched using Waters Protein Lynx Global Server v3.0 using the exact mass calculated for the cysteine thiosulfonate modification.

[6] = HPLC assay of thiosulfonate reduction by TCEP or ascorbate; assay type: physicochemical
Procedure: FIG. 5A-B. The thiosulfonate product is reduced by TCEP, but not ascorbate. A 0.5 mM solution of the thiosulfonate product was incubated with 2.5 mM TCEP or 2.5 mM sodium ascorbate in phosphate buffer (pH 7.4) in the dark at room temperature. After 5 minutes and 60 minutes, an aliquot injected for HPLC analysis and separated using gradient elution (5% ACN to 95% ACN over 15 minutes).

T1 sequence (P04406 whole entry): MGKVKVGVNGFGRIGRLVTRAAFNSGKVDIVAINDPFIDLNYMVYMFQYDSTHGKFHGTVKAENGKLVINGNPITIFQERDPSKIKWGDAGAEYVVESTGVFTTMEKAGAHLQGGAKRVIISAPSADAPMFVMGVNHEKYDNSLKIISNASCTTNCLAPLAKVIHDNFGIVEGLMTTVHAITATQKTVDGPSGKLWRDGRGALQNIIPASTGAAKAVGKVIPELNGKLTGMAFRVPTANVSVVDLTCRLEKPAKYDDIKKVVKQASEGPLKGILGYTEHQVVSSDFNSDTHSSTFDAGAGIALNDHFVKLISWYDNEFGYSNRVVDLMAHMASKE

Compound: C#CCCCC1CC(=O)CC(=O)C1 [Dimedone alkyne, 5-(pent-4-yn-1-yl)cyclohexane-1,3-dione]
- detection of sulfenic acids ([1]; 1 mM, 1 hour, PBS): most efficient in PBS
- dimedone labeling ([1]; lysate denatured in 6 M urea/PBS): nearly completely eliminated

Compound: O=S(O)c1ccccc1 [phenylsulfinic acid]
- reaction with GSNO ([2]; basic conditions): no reaction occurs
- reaction rate of thiosulfonate formation with GSNO ([2]; pH 1 and 4, first order): 3e-05 M/s
- reaction with thiols, disulfides, or aldehydes ([3]; 2 mM with 20 mM N-acetyl-cysteine-methyl ester, benzaldehyde, cystine dimethyl ester, DTNB, phosphate buffer pH 7.4, 5 hours): do not react
- reaction with iodoacetamide ([3]; 10 mM with 20 mM iodoacetamide, potassium phosphate buffer pH 7.4, 5 hours): no reaction

Compound: O=C(CCCC[C@@H]1SC[C@@H]2NC(=O)N[C@@H]21)NCCS(=O)(=O)O [biotin-SO3H, 2-(5-((3aS,4S,6aR)-2-oxohexahydro-1H-thieno[3,4-d]imidazol-4-yl)pentanamido)ethanesulfonic Acid]
- labeling of mammalian proteins [4]: unreactive

Compound: O=C(NCCS(=O)O)c1ccc(-c2c3ccc(=O)cc-3oc3cc(O)ccc23)c(C(=O)O)c1 [Fluorescein-SO2H, 2-(6-hydroxy-3-oxo-3H-xanthen-9-yl)-5-((2-sulfinoethyl)carbamoyl)benzoic Acid]
- GAPDH labeling after pre-incubation with peroxide or dimedone ([5]; 500 μM probe, 45 minutes): unaffected

Compound: O=C(NCCS(=O)(=O)O)c1ccc(-c2c3ccc(=O)cc-3oc3cc(O)ccc23)c(C(=O)O)c1 [fluorescein-SO3H, 2-(6-hydroxy-3-oxo-3H-xanthen-9-yl)-5-((2-sulfoethyl)carbamoyl)benzoic Acid]
- labeling of GAPDH ([5]; 6 M urea/PBS, 50 mM iodoacetamide, probe 45 minutes): does not label GAPDH

Compound: COC(=O)[C@H](CSS(=O)(=O)c1ccccc1)NC(C)=O [thiosulfonate product, (R)-methyl 2-acetamido-3-((phenylsulfonyl)thio)propanoate]
- cleavage of thiosulfonate bond by TCEP ([6]; 0.5 mM with 2.5 mM TCEP, phosphate buffer pH 7.4, room temperature): immediately cleaves
- cleavage of thiosulfonate bond by ascorbate ([6]; 0.5 mM with 2.5 mM sodium ascorbate, pH 7.4, 60 minutes): does not
